The source of these data is patent US10568898B2, “Lipophilic nanoparticles for drug delivery” (priority 2013, dated 2020).

Structures are written as SMILES.

The test system of data set [1] is Ramos cells. The format is cell-based. The note with it: FIG. 7, free doxorubicin at 100 nM-1 μM, HDL-Andrographolide NP at 5 nM.
Procedure: For suspension cell lines (Ramos, Jurkat, and SUDHL4), confluent cells were deposited onto 96-well plates at 1×10^5 cells/mL, then treated with either: 1-10 nM HDL NP, 1-10 nM HDL-drug NP, 10 nM-1 μM free drug, or 10 nM human HDL. All solutions were in 1% PBS, in a total volume of 100 μL. Cells were incubated for 48 hours with the treatment, then assessed for viability using a 3-(4,5-dimethylthiazol-2-yl)-5-(3-carboxymethoxyphenyl)-2-(4-sulfo-phenyl)-2H-tetrazolium (MTS) cell proliferation assay. 20 μL of the MTS solution (G1112; Promega) was added to each well; absorbance at 490 nm was measured immediately and after 90 min. Survival for a sample was presented as absorbance for that sample at 90 min, compared to absorbance for the non-treated control at 90 min. Since metabolically active cells reduce MTS, lower absorbance indicates cell death.
Cytotoxicity of the HDL-Doxorobucin NPs was assessed by incubating with lymphoma cells in culture for 48-72 hours, and measuring cell viability by a 3-(4,5-dimethylthiazol-2-yl)-5-(3-carboxymethoxyphenyl)-2-(4-sulfophenyl)-2H-tetrazolium (MTS) assay. […]
For suspension cell lines (Ramos and SUDHL4), 90 μl confluent cells were deposited into 96-well plates at 1×10^5 cells/mL, then treated with 10 μl of either: 1-10 nM HDL NP, 1-10 nM HDL-drug NP, 10 nM-1 μM free drug, 10 nM human HDL, or PBS. […] Cells were incubated for 48 hours with the treatment, and then assessed for viability using a 3-(4,5-dimethylthiazol-2-yl)-5-(3-carboxymethoxyphenyl)-2-(4-sulfo-phenyl)-2H-tetrazolium (MTS) cell proliferation assay. Twenty μL of the MTS solution (G1112; Promega) was added to each well; absorbance at 490 nm was measured immediately and after 90 minutes. […] Cell viability was calculated according to the following formula: Cell viability=(OD490, 90 min(sample)−OD490, 90 min(0% survival control))/(OD490, 90 min(100% survival control)−OD490, 90 min(0% survival control))×100%
Cytotoxicity of the Dox-HDL-NPs was assessed by incubating Dox-HDL-NP, HDL-NP, or free doxorubicin at varying doses with different lymphoma cell lines. […]
For data set [2] the following is noted: clinical use; cited from earlier work.
Data set [3] has as its system LNCaP adenocarcinoma cell lines. Nature of the data set: Fluorescence microscopy of doxorubicin uptake. The format is cell-based, human. The note with it: 18 hours after treatment. How it is done:
To further confirm delivery of doxorubicin to cancer cells with HDL-NP, LNCaP adenocarcinoma cell lines were assessed by fluorescence microscopy after treatment with free doxorubicin, Dox-HDL-NP, and HDL-NP.

For data set [4], the system named is H9c2 cells. The note with it: 48- and 72-hour treatment, same concentrations as lymphoma lines.
Procedure: For adherent lines (LNCaP, MDA-MB-231, and H9c2), cells were deposited onto 96-well plates at a concentration of 5×10^4 cells/mL, 24 hours prior to treatment. Cells were then treated, incubated, and assessed as described above for the suspension cells.
The effects of Dox-HDL-NP and free doxorubicin in H9c2 cardiomyoblasts, a rat-derived cardiomyocyte cell line that has been used extensively in mechanistic studies of doxorubicin toxicity in heart cells, have been studied.

In the case of `C=C1CC[C@@H]2[C@](C)(CO)[C@H](O)CC[C@@]2(C)[C@@H]1C/C=C1/C(=O)OC[C@H]1O` [Andrographolide], in data set [1], the killing effect result is reported as “slight protective effect on cells”.

With `CC[C@]1(O)C[C@H]2CN(CCc3c([nH]c4ccccc34)[C@@](C(=O)OC)(c3cc4c(cc3OC)N(C=O)[C@H]3[C@@](O)(C(=O)OC)[C@H](OC(C)=O)[C@]5(CC)C=CCN6CC[C@]43[C@@H]65)C2)C1` [Vincristine], the killing effect result in data set [1] is given as “kills with comparable efficiency to the bare HDL NP”.

As to `COc1cccc2c1C(=O)c1c(O)c3c(c(O)c1C2=O)C[C@@](O)(C(=O)CO)C[C@@H]3O[C@H]1C[C@H](N)[C@H](O)[C@H](C)O1` [doxorubicin], the killing effect result in data set [1] is listed as “substantial killing effect”. Moreover, the “cumulative dose above which cardiotoxicity typically occurs” value in data set [2] is “exceeds 450 mg/m^2 of body surface area”. In addition, the “doxorubicin fluorescence in cells” value in data set [3] is reported as “fluorescence was clearly seen”. Besides, the “cell viability in cardiomyoblasts” value in data set [4] is listed as “significant reduction in viability”.
